pIC50, pKi: −log10 of the molar value. Where “and” joins values, the source holds several entries; their conditions need not be identical. Identical values can stand only once. Like-named read-outs stand apart in the source and are kept apart here.
Columns and labels:
[1] = biological target: memapsin 2 (Homo sapiens, UniProt P56817); test: Inhibition of memapsin 2 beta-secretase activity (fluorogenic substrate FS-2); format: biochemical; conditions: pH 4, 37° C., read-out: M2 Ki
How it was run: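 Memapsin 2 pre-incubated with compound for 20 min at pH 4, 37° C. Reaction started with fluorogenic substrate FS-2, […], derived from Swedish-variant APP beta-secretase site; inhibition measured from fluorescence.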

[2] = biological target: T1, memapsin 2 (Cricetulus griseus, UniProt G3IAK4); test: Cellular Aβ IC50 determination (Aβ40 sandwich ELISA); format: cell-based, Chinese hamster; conditions: CHO cells over-expressing human APP695 with London and Swedish mutations, 24 h, read-out: M2 IC50
T1 construct: endogenous in cells; host or cells: Chinese hamster ovary cells over-expressing human APP695 (London + Swedish)
T1 sequence (G3IAK4 22-501): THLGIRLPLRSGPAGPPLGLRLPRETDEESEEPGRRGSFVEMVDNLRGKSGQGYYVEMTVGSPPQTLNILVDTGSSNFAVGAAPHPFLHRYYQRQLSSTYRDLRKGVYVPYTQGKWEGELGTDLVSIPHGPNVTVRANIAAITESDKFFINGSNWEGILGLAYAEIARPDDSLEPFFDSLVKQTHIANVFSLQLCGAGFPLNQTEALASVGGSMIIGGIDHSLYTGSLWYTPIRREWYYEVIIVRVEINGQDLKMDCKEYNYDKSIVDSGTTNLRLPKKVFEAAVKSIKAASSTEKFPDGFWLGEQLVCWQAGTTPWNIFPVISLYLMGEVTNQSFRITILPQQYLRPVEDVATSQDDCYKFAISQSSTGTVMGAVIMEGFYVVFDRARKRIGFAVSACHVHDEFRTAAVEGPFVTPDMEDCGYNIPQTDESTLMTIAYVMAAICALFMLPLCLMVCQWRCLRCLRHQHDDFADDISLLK
Method: The potency of compounds against memapsin 2 activity was determined in a cellular assay of Aβ production. […] Chinese hamster ovary cells that over-express human APP695 with the London and Swedish mutations were seeded in multi-well plates at 10% confluency. Compounds are dissolved in DMSO to concentrations near 1 mM, and diluted into culture media to a final concentration near 4 μM (final 0.4% DMSO). Compounds were diluted serially and applied to cells in multi-well plates 48 h after seeding. Incubation was continued in 5% CO2 at 37° C. for 24 h. Aliquots were removed and assayed for […] using a sandwich ELISA (BioSource International). Amount of Aβ40 over the range of concentration of compounds, relative to control incubations, were fit to a 4-parameter IC50 model.

[3] = biological target: T2, CYP3A4 (Homo sapiens, UniProt P08684); test: CYP3A4 inhibition (midazolam metabolism in human liver microsomes); format: in vitro ADME; conditions: substrate midazolam
T2 construct: host or cells: human liver microsomes
T2 sequence (P08684 whole entry): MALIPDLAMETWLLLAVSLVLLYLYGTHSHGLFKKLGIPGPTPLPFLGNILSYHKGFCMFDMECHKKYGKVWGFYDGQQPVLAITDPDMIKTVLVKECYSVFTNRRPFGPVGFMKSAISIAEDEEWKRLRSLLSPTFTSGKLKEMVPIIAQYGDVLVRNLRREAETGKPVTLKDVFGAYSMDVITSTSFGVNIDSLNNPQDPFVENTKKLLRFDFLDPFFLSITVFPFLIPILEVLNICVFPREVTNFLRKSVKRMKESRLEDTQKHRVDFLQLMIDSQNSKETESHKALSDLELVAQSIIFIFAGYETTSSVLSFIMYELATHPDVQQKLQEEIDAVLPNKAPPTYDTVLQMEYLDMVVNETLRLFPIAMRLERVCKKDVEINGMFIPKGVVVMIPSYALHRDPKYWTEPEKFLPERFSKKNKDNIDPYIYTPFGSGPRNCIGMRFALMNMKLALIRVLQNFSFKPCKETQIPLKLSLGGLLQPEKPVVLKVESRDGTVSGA
Method: To evaluate the drug-drug interaction potential for compounds, the potency to inhibit the major metabolic cytochrome CYP450 isoform 3A4 was assessed. The inhibition constant Ki was determined for inhibition of the metabolism of midazolam, a CYP3A4 substrate.
CYP3A4 Ki assays were performed following a recently published protocol with slight modifications (Di, L., Kerns, E. H., Li, S. Q., and Carter, G. T. (2007) Comparison of cytochrome P450 inhibition assays for drug discovery using human liver microsomes with LC-MS, rhCYP450 isozymes with fluorescence, and double cocktail with LC-MS. International Journal of Pharmaceutics 335: 1-11). The P450 inhibition assay was performed in 96-well plates at 37.2° C. in a shaking incubator. The compounds were diluted from 5 mM stocks in 100% DMSO and incubated at seven final concentrations from 0.078 to 10 μM (0.1% DMSO in each final incubation), with human liver microsomes (HLM) at a final protein concentration of 0.1 mg/mL protein and a substrate concentration ranging from 1.25 to 10 μM.
The assay was standardized for both phosphate buffer (100 mM, pH 7.4) and the NADPH regenerating system (MgCl2, 3.3 mM; G6P, 3.3 mM; G6PD, 1 U/ml; NADP+, 1.3 mM). Eight replicate control samples (0.1% DMSO, no compound) were prepared. Assays (200 μL) were set up by mixing HLM+substrate stock, 10 μL of test article in 2% DMSO, and the substrate before initiating the reaction with the addition of the regenerating system mixture. Reactions were quenched following incubation for 20, 30 and 40 minutes as described following.
After incubation for the specified time in a humidified shaking incubator, 20 μL of the reaction mixture was removed and the reactions were terminated by adding 200 μL of cold acetonitrile. Samples were centrifuged at 1000×g for 15 minutes in Solvinert filter plate. The receptor plate was dried via speed vacuum at 40° C. The sample was reconstituted with a reconstitution buffer composed of 10% acetonitrile, 10% DMSO, 80% H2O with an internal standard added at a concentration of 100 ng/ml. MS-Analysis was completed using LC-MS/MS. Formation of 1′-hydroxymidazolam was measured by monitoring a specific SRM (342>203) transition for the CYP3A4 metabolite.
Data were expressed as the relative quantity of midazolam metabolite relative to control incubations. Initial velocities were obtained by multiplying the relative quantity by the initial substrate concentration and dividing by the incubation duration. Data were transformed to inverse of inivital velocity and expressed vs. inhibitor concentration [I] for determination of Ki by the Dixon method (Dixon, M. (1953) Biochemical Journal 55: 170-171) using where intercept [I]=−Ki was determined at multiple substrate concentrations.

[4] = Hepatic intrinsic clearance in liver microsomes; format: in vitro ADME; conditions: human, pH 7.4, human liver microsomes
Method: To 500 μl of 200 mM Na^+K^+phosphate buffer (pH 7.4), 100 μl of 1 mM EDTA solution was added followed by 100 μl of 2 mg protein/ml human liver microsomes. A 10 μl aliquot of test compound (20 mM stock in 50% acetonitrile) was diluted further with 40 μl of H2O (total assay volume […]. Assay mixture is incubated for 5 minutes at 37° C. The assay was initiated by addition of 250 μl of 4 mM NADPH solution. Incubation was continued at 37° C. Separate reaction mixtures were prepared for 0, 5, 10, 20, and 30 min durations. Individual reactions were halted by addition of 150 μl of 100% acetonitrile. Internal standard (10 μl of 100 ng/ml diazepam solution) was added. Concentration of the test compound in each separate reaction was measured using LC/MS/MS and a standard curve for the test compound according to standard procedures.
The hepatic intrinsic clearance in liver microsome was determined by the following procedure described by Davies and Morris (Davies, B. and Morris, T. (19930) Physiological parameters in laboratory animals and humans. Pharm Res. 10:1093-1095) detailing the relationship of in vitro clearance to physiological parameters in animals and human subjects.
The amount of compound remaining at each time point was expressed relative to the amount present in the initial (0 min) incubation. The relationship of relative amount vs. time was used to determine the half life of the compound in the microsome assay. The concentration independent rate constant, k1, was determined from rectangular hyperbolic fit:
where T is time (in minutes), from the relationship of relative amount vs. time. Alternatively, k1 was determined from a transform of the equation, where
Conversion to in vivo clearance was obtained from the relation (Davies and Morris, 1993):
where v=velocity of metabolism, [S] is the concentration of the compound, and volumes are expressed in mL.

[5] = in vitro clearance, read-out: HLM CL

Chain of memapsin 2 (Homo sapiens, UniProt P56817) (P56817 46-501): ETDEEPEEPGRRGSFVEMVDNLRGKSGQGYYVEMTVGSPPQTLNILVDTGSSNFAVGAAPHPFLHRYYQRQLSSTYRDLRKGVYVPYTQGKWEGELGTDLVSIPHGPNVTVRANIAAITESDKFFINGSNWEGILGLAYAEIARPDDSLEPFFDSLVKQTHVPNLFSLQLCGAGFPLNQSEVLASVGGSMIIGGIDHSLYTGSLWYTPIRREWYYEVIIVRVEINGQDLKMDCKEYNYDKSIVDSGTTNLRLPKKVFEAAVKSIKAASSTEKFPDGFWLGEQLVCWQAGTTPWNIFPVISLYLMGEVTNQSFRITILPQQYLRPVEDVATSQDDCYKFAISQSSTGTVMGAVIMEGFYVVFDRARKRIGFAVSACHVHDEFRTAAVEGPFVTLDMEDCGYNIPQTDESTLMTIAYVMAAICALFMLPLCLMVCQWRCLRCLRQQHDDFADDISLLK

Structure (SMILES)	pKi [1]	pIC50 [2]	pKi ([3]; read-out: CYP 3A4Ki)	CLint scaled at 200 μM [4, 5] [mL/min/kg]	pKi [3]	CLint scaled at 200 μM ([4]; read-out: hepatic intrinsic clearance in liver microsomes (HLMCL)) [mL/min/kg]
Cc1cc(C(=O)N[C@@H](Cc2ccccc2)[C@H](O)[C@H]2CCCN2)cc(C(=O)N2CCC[C@@H]2c2nc(C)co2)c1 [1-8, N-((1R,2S)-1-hydroxy-3-phenyl-1-((R)-pyrrolidin-2-yl)propan-2-yl)-3-methyl-5-((R)-2-(4-methyloxazol-2-yl)pyrrolidine-1-carbonyl)benzamide]	6.12 to 6.60	< 6.00	< 5.00	< 400		
Cc1csc(CN(C)C(=O)c2cccc(C(=O)N[C@@H](Cc3ccccc3)[C@H](O)[C@H]3C[C@@H](OCc4ccccc4)CN3)c2)n1 [1-9, N1-((1R,2S)-1-((2R,4R)-4-(benzyloxy)pyrrolidin-2-yl)-1-hydroxy-3-phenylpropan-2-yl)-N3-methyl-N3-((4-methylthiazol-2-yl)methyl)isophthalamide]	> 6.60	> 6.30	5.30 to 6.00	< 400		
C[C@@H](NC(=O)c1cc(C(=O)N[C@@H](Cc2ccccc2)[C@H](O)[C@H]2CCCN2)cc(N(C)S(C)(=O)=O)c1)c1ccccc1 [1-11, N1-((1R,2S)-1-hydroxy-3-phenyl-1-((R)-pyrrolidin-2-yl)propan-2-yl)-5-(N-methylmethylsulfonamido)-N3-((R)-1-phenylethyl)isophthalamide]	> 6.60	> 6.30	< 5.00	< 400		
Cc1csc(CN(C)C(=O)c2cc(C(=O)N[C@@H](Cc3ccccc3)[C@H](O)[C@H]3CCCN3)cc(-n3cccc3)c2)n1 [1-13, N1-((1R,2S)-1-hydroxy-3-phenyl-1-((R)-pyrrolidin-2-yl)propan-2-yl)-N3-methyl-N3-((4-methylthiazol-2-yl)methyl)-5-(1H-pyrrol-1-yl)isophthalamide]	> 6.60	6.00 to 6.30	5.00 to 5.30	< 400		
Cc1csc([C@H]2CCCN2C(=O)c2cc(C(=O)N[C@@H](Cc3ccccc3)[C@H](O)[C@H]3CCCN3)cc(C(F)F)c2)n1 [1-14, 3-(difluoromethyl)-N-((1R,2S)-1-hydroxy-3-phenyl-1-((R)-pyrrolidin-2-yl)propan-2-yl)-5-((R)-2-(4-methylthiazol-2-yl)pyrrolidine-1-carbonyl)benzamide]	> 6.60	> 6.30	5.30 to 6.00	< 400		
Cc1csc(CN(C)C(=O)c2cc(C(=O)N[C@@H](Cc3ccccc3)[C@H](O)[C@H]3CCCN3)cc(-c3ncco3)c2)n1 [1-15, N1-((1R,2S)-1-hydroxy-3-phenyl-1-((R)-pyrrolidin-2-yl)propan-2-yl)-N3-methyl-N3-((4-methylthiazol-2-yl)methyl)-5-(oxazol-2-yl)isophthalamide]	> 6.60	> 6.30	5.00 to 5.30	< 400		
Cc1csc([C@H]2CCCN2C(=O)c2cc(C(=O)N[C@@H](Cc3ccccc3)[C@H](O)[C@H]3CCCN3)cc(-n3cccc3)c2)n1 [1-16, N-((1R,2S)-1-hydroxy-3-phenyl-1-((R)-pyrrolidin-2-yl)propan-2-yl)-3-((R)-2-(4-methylthiazol-2-yl)pyrrolidine-1-carbonyl)-5-(1H-pyrrol-1-yl)benzamide]	> 6.60	6.00 to 6.30	5.30 to 6.00	< 400		
Cc1coc([C@H]2CCCN2C(=O)c2cc(C(=O)N[C@@H](Cc3ccccc3)[C@H](O)[C@H]3CCCN3)cc(-c3ncco3)c2)n1 [1-17, N-((1R,2S)-1-hydroxy-3-phenyl-1-((R)-pyrrolidin-2-yl)propan-2-yl)-3-((R)-2-(4-methyloxazol-2-yl)pyrrolidine-1-carbonyl)-5-(oxazol-2-yl)benzamide]	> 6.60	> 6.30	< 5.00	< 400		
Cc1coc([C@H]2CCCN2C(=O)c2cccc(C(=O)N[C@@H](Cc3ccccc3)[C@H](O)[C@H]3C[C@@H](OCc4ccccc4)CN3)c2)n1 [1-18, N-((1R,2S)-1-((2R,4R)-4-(benzyloxy)pyrrolidin-2-yl)-1-hydroxy-3-phenylpropan-2-yl)-3-((R)-2-(4-methyloxazol-2-yl)pyrrolidine-1-carbonyl)benzamide]	~7.30 and > 6.60 and 7.30	> 6.30	< 5.00	< 400	4.94	~337
Cc1csc([C@H]2CCCN2C(=O)c2cc(C(=O)N[C@@H](Cc3ccccc3)[C@H](O)[C@H]3CCCN3)cc(N3CCCC3=O)c2)n1 [1-39, N-((1R,2S)-1-hydroxy-3-phenyl-1-((R)-pyrrolidin-2-yl)propan-2-yl)-3-((R)-2-(4-methylthiazol-2-yl)pyrrolidine-1-carbonyl)-5-(2-oxopyrrolidin-1-yl)benzamide]	> 6.60	> 6.30		< 400		
Cc1csc([C@H]2CCCN2C(=O)c2cncc(C(=O)N[C@@H](Cc3ccccc3)[C@H](O)CNCc3cc(Cl)nc(N(C)C)c3)c2)n1 [2-1, N-((2S,3R)-4-((2-chloro-6-(dimethylamino)pyridin-4-yl)methylamino)-3-hydroxy-1-phenylbutan-2-yl)-5-((R)-2-(4-methylthiazol-2-yl)pyrrolidine-1-carbonyl)nicotinamide, reference compound]	> 6.60	> 6.30		> 700		
C=C(C)c1cccc(CNC[C@@H](O)[C@H](Cc2ccccc2)NC(=O)c2cccc(C(=O)N3CCC[C@@H]3c3nc(C)co3)c2)c1 [2-6, N-((2S,3R)-3-hydroxy-1-phenyl-4-(3-(prop-1-en-2-yl)benzylamino)butan-2-yl)-3-((R)-2-(4-methyloxazol-2-yl)pyrrolidine-1-carbonyl)benzamide, reference compound]	> 6.60	> 6.30		> 700		

Reference: patent publication US20120214802A1, “PYRROLIDINE COMPOUNDS WHICH INHIBIT BETA-SECRETASE ACTIVITY AND METHODS OF USE THEREOF” (priority 2009, published 2012)
